Measurements taken from patent US20120083472A1, “PHARMACEUTICAL COMPOSITION FOR PROMOTING THE HEALING OF WOUNDS AND CONTAINING LYSOPHOSPHATIDIC ACID AND AN ADENYLYL CYCLASE INHIBITOR AS ACTIVE INGREDIENTS” (SNU R&DB FOUNDATION, priority 2009, published 2012).

How the values were obtained:
[1] = test system: skin wounds of young and aged Fisher 344 rats; test: Skin wound healing in young and aged rats (photographs, H & E, PCNA staining); assay type: in vivo, rat; conditions: for epithelialization (H & E) of aged wounded rats: day 4, compared to control untreated groups; for PCNA staining in aged rats: wound sections, versus very weak staining in control aged rats; for number of PCNA positive cells / wound healing rate (photographs of wounds): young and aged rats; for number of PCNA positive cells: wound sections (FIG. 9B, 9C); for wound healing rate (photographs of wounds): LPA 30 μM, ACI 300 μM, 200 μl topical once per two days, 4th day (FIG. 7)
Experimental: Rats were anesthetized with intraperitoneal injection of ketamine and xylazine. The back was shaved (A) and four full-thickness circular skin wounds of 1.0 cm diameter were cut (B). A teflon wound chamber was glued into the edge of the skin and then sewn using a […] (C).
Young and old rats were anesthetized and wounded as described in the legend of FIG. 1. 200 μl aliquots of the solutions containing LPA (30 μM), ACI (300 μM), and the mixture of LPA and ACI dissolved in physiological saline were applied onto wound sites using a sterile glass filter in each wound chamber once per two days. After 4 days, the wounds were photographed.
Young and old rats were anesthetized and wounded as described in the legend of FIG. 1. The wounds were treated with LPA (30 μM), ACI (300 μM), or the mixture of LPA and ACI as described in the legend of FIG. 1c. On postoperative days 4, animals were anesthetized and killed as described in “Materials and Methods”. Approximately 5-mm-thick section across the dorsoventral diameter of the wound was cut and fixed and embedded in paraffin. Serial sections were cut and processed for hematoxylin-eosin (H & E) staining. H & E stained epithelial layer was visualized on the top of each section.
Young and aged rats were anesthetized and wounded as described in the legend of FIG. 1. The wounds were treated with LPA (30 μM), ACI (300 μM), or the mixture of LPA and ACI as described in the legend of FIG. 1c. On postoperative days 2, 4, and 7, animals were anesthetized and killed as described in “Materials and Methods”. An about 5-mm-thick section across the dorsoventral diameter of the wound was cut and fixed and embedded in paraffin. Serial sections were cut and processed for immunohistochemistry using PCNA as described in “Materials and Methods”. The presence of PCNA was visualized by using avidin-biotin peroxidase complex method and the control was counterstained with hematoxylin. The photographs from postoperative days 4 are shown in A. The number of PCNA positive cell was counted from each photograph and plotted in B (young rats) and C (aged rats).
Rats aged 6 months and 24 months which were used in experiments were purchased from Samtaco BioKorea (Seoul, Korea) and housed two per cage in a room with controlled temperature and humidity with a 12:12-h light-dark cycle. They were maintained on a standard diet with food and water ad libitum in an animal facility accredited by the Korean Association for Accreditation of Laboratory Animal Care. Animals were divided into treatment groups, each consisting of nine, and used in experiments.
Rats were anesthetized with intraperitoneal injection of ketamine and xylazine (87/13 mg/kg). Skin wounding and its protection was performed as described by Balazs (Balazs et al., 2001). By the dermabrasion technique using diamond bar, four second-degreed partial thickness circular wounds of 1.0 cm. A teflon wound chamber with a 1.2 cm inner diameter centered around the wound was glued into the edge of the skin with Histoacryl and then sewn using a surgical nylon suture (Ethicon 4-0) (FIG. 1C). In order to protect wound site, upon treatment with LPA or ACI, they were sprayed using a sterile filter (GF-C Whatman), followed by treatment. This work was carried out by a single plastic surgeon for consistency and exactness of experiments. 30 μM of LPA, 300 μM of ACI, and the mixture of LPA (30 μM) and ACI (300 μM) are dissolved in physiological saline to be a 200-μl aliquot, respectively. The 200-μl aliquot, corresponding to 30 pmol/mm^2, was applied […] into the wound of the animals anesthetized with inhalation. The contralateral side received 200 μl of saline as a control. […]
Serial sections (4 […]μm thick) were cut and processed for hematoxylin-eosin (H & E) and immunohistological staining. Paraffin sections on the microslides were deparaffinized in xylene and rehydrated sequentially in alcohol. […]

[2] = test system: young and senescent fibroblasts, HUVEC, skin keratinocytes; test: DNA synthesis ([3H]-thymidine incorporation); assay type: cell-based, human
Experimental: Sub-cultured young (PD 25) and senescent (PD 73) cells (A), skin fibroblasts from young and elderly donors (B), HUVEC (C) and skin keratinocytes (D) were serum-starved for 2 days and treated with 1 mM of dibutyryl-cAMP (dbcAMP), or 300 […]μM of ACI (SQ22536) for 2 hrs. Cells were then treated with 30 μM of LPA in the presence of 0.5 μCi/ml of [^3H]-radioactive isotope. The radioactivity incorporated into the DNA was counted and fold increase of radioactive isotope incorporation was calculated and plotted. The results shown represent the means±standard deviation of a representative experiment. Human umbilical vein endothelial cells (HUVEC) were isolated from endothelial cells of umbilical cords as described by Whang et al (Whang et al., 2005). Foreskin human fibroblasts and keratinocytes were isolated from newborn foreskins as described by Boyce and Ham (Boyce and Ham, 1983). Patient consents were obtained from all donors and the use of tissue samples was approved by the ethics committee of the Seoul National University. The obtained and isolated fibroblasts and HUVEC were maintained in DMEM containing 10% fetal bovine serum (FBS) and antibiotics, and keratinotyes were in keratinocyte growth medium (KGM) containing antibiotics. Cells from the early stage of culture were cultured to obtain aged cells, which were used in experiments (population doubling -PD- of less than 25 vs PD 65-70 in fibroblasts, PD less than 5 vs PD 10-12 in case of HUVEC). Senescent cells were characterized by morphological changes, enhanced […]β-galactosidase activity and a reduced rate of proliferation (Yeo et al., 2000). Cells were grown for 2 days to 60-70% sub-confluency in the culture medium after treatment with LPA or ACI, and then serum-starved to quiescence by incubating them with either serum free DMEM containing 0.1% BSA (fibroblasts or HUVEC) or KBM (keratinocytes) for 2 days. […] Radioactivity in the neutralized lysates was counted in a liquid scintillation cocktail. The measured radioactivity as such was compared to that of control to find the synthesis degree of […].

Row | Molecule | epithelialization (H & E) of aged wounded rats [1] | PCNA staining in aged rats [1] | number of PCNA positive cells [1] | wound healing rate (photographs of wounds) [1] | basal and LPA-stimulated DNA synthesis in senescent cells ([2]; senescent cells, 1 mM dbcAMP or 300 μM ACI 2 hrs, then 30 μM LPA (FIG. 4A)) | thymidine incorporation, basal and LPA-stimulation conditions ([2]; young and aged fibroblasts, HUVEC and keratinocytes, 300 μM ACI (FIG. 4))
1 | lysophosphatidic acid [LPA] | higher | increased significantly | increased significantly | faster than the untreated controls | – | –
2 | Nc1ncnc2c1ncn2C1CCCO1 (stereo not shown) [ACI, 9-(tetrahydro-2′-furyl)adenine] | higher | increased significantly | increased significantly | faster than the untreated controls | increased | enhanced the thymidine incorporation
